In ChEMBL document CHEMBL1125561, “Inhibition of human leukocyte elastase by N-substituted peptides containing alpha,alpha-difluorostatone residues at P1” (J Med Chem, 1992):
Numbered stars: 1 amine (or outer) side, 2 acyl side, 3 side chain; on linkers, the order of the positions; unused ones are H or OH. Square brackets hold non-standard residues; d marks the D form. Peptide text beside a SMILES is read from it. * marks the point of attachment. X1 = CC(C)[C@H](N[*:1])C(=O)C(F)(F)C(=O)[*:2]; N(Indan-2-yl)Gly = O=C(O)CNC1Cc2ccccc2C1; Cbz = O=C(OCc1ccccc1)*

What was measured:
[1] = system: Cricetinae gen. sp.; experiment: Inhibition of Elastase-induced pulmonary Hemorrhage(EPH) in Hamsters at a dose of 20 ug/mL; type: functional, Cricetulus griseus
[2] = system: Cricetinae gen. sp.; experiment: Inhibition of Elastase-induced pulmonary Hemorrhage(EPH) in Hamsters at a dose of 10 ug/mL; type: functional, Cricetulus griseus
[3] = target: T1, Neutrophil elastase (Homo sapiens, UniProt P08246); experiment: Inhibitory activity against human leukocyte elastase (HLE) at pH 7.5
T1 sequence (P08246 whole entry): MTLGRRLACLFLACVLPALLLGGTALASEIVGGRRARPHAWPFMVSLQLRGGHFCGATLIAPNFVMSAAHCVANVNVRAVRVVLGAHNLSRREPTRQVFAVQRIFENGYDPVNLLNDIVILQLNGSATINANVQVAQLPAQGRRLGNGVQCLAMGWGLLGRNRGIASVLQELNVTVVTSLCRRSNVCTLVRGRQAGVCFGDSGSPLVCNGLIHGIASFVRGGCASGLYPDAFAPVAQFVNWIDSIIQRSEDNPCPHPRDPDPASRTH

[4] = system: Cricetinae gen. sp.; experiment: Inhibition of Elastase-induced pulmonary Hemorrhage(EPH) in Hamsters at a dose of 3 ug/mL; type: functional, Cricetulus griseus

Row | Structure (SMILES) | Max reduction [1] | Max reduction [2] | further results
1 | COC(=O)[C@H](CCCCNC(=O)C(F)(F)C(=O)[C@@H](NC(=O)CN(C(=O)[C@@H](NC(=O)OCc1ccccc1)C(C)C)C1Cc2ccccc2C1)C(C)C)NC(C)=O | 7.6% | – | –
2 | CCOC(=O)C(F)(F)C(=O)[C@@H](NC(=O)CN(C(=O)[C@@H](NC(=O)c1ccc(C(=O)NS(=O)(=O)c2ccc(Cl)cc2)cc1)C(C)C)C1Cc2ccccc2C1)C(C)C | – | 94.6% | –
3 | CCOC(=O)C(F)(F)C(=O)[C@@H](NC(=O)CN(C(=O)[C@@H](NC(=O)OCc1ccccc1)C(C)C)C1Cc2ccccc2C1)C(C)C | 51.9% | – | –
4 | CCOC(=O)C(F)(F)C(=O)[C@H](CC(C)C)NC(=O)CN(C(=O)[C@@H](NC(=O)c1ccc(C(=O)NS(=O)(=O)c2ccc(Cl)cc2)cc1)C(C)C)C1Cc2ccccc2C1 | 55.2% | – | –
5 | CCOC(=O)C(F)(F)C(=O)[C@H](Cc1ccccc1)NC(=O)CN(C(=O)[C@@H](NC(=O)c1ccc(C(=O)NS(=O)(=O)c2ccc(Cl)cc2)cc1)C(C)C)C1Cc2ccccc2C1 | – | 12.2% | IC50 [3]: > 5 µM
6 | CC(C)C(NC(=O)CN(C(=O)[C@@H](NC(=O)c1ccc(C(=O)NS(=O)(=O)c2ccc(Cl)cc2)cc1)C(C)C)C1Cc2ccccc2C1)C(=O)C(F)(F)F (stereo partly specified) | – | 90.5% | Max reduction [4]: 58.1%
7 | CCOC(=O)CNC(=O)CNC(=O)C(F)(F)C(=O)[C@@H](NC(=O)CN(C(=O)[C@@H](NC(=O)OCc1ccccc1)C(C)C)C1Cc2ccccc2C1)C(C)C (Cbz-V[N(Indan-2-yl)Gly][X1]GG-OEt) | 33.3% | – | –
8 | CC(C)[C@H](NC(=O)OCc1ccccc1)C(=O)N(CC(=O)N[C@H](C(=O)C(F)(F)C(=O)O)C(C)C)C1Cc2ccccc2C1 | 55.8% | – | IC50 [3]: > 5 µM
